Reference: US10364234B2, “Pyridinecarboxamide derivatives, preparation method thereof and pharmaceutical uses thereof” (Jiangsu Hengrui Medicine Co., Ltd., priority 2014, dated 2019)

Experiments:
[1] = Solubility observed when preparing the dosing formulation; format: physicochemical; conditions: preparation of dosing formulation for the diuresis experiment
Source text: In this experiment, the solubility of the test compound 1 was very good. There was no delamination phenomenon. […] After fully grinding, the solubility improved. […] Moreover, the effect was dose-dependent for each dose of the test compound 1 and the positive control drug.

SD rats = experiment: Diuretic efficacy of ROMK inhibitors in SD rats; format: in vivo, rat; conditions: for urinary sodium excretion increase compared with blank control group / urinary potassium compared with normal control group: 4 h; for urine output increase compared with blank control group: total urine in 4 h; for urinary potassium compared with normal control group / serum potassium change / serum sodium change: 0.03 and 0.1 mg/kg i.g. once; for serum potassium change / serum sodium change: P>0.05
Protocol: The diuretic efficacy of compound 1 and positive control drug of ROMK inhibitor on SD rats was evaluated.
Male SD rats were purchased from SINO-BRITSH SIPPR/BK LAB. ANIMAL LTD., CO (Shanghai, China, Certificate No. 2008001647752, License SCXK (Shanghai) 2013-0016). The rats were 120-130 g, and fed at 5/cage, in a 12/12 hours light/dark cycle regulation, at a constant temperature of 23±1° C., humidity of 50˜60%, and free access to water and food. The male SD rats were acclimated to this condition for 7 days before their use in the diuresis experiment.
The experiment was carried out according to the method disclosed in PCT Patent Application Publication WO2010129379A1 After adaptive feeding, the rats were placed in metabolism cages and fasted overnight. The rats were weighed and randomly divided into the following groups: blank control group, compound 1 tested drug 0.03 mg/kg group and 0.1 mg/kg group, and the positive control group 0.03 mg/kg and group 0.1 mg/kg, with 10 rats for each group. Each rat was intragastrically administered each compound (ig, 1 ml/kg). The rats in the blank control group were fed with the corresponding solvent. After intragastric administration, the rats were placed in the normal cage. After 30 min, 25 ml/kg normal saline was given. Rats were put into the metabolic cages, and fasting for food and water began immediately. The total urine volume in 4 h was collected and measured. The urinary sodium and urinary potassium excretion in 4 h were also measured. The orbital serum was collected after the collection of urine to test the serum sodium and serum potassium concentrations.
The experimental data were expressed as mean±standard deviation (S.D.). The data was statistically compared using the t test of excel.

rat ROMK channel = rat ROMK channel (Rattus norvegicus (Rat), UniProt P35560); experiment: FluxOR potassium ion channel assay, rat ROMK/HEK293 cells; format: cell-based
Source text: (§1) The method described hereafter was used for determining the inhibitory activity of the present compounds on human ROMK and rat ROMK channels.
(5) Rat ROMK/HEK293 cell: HEK293 cell line transfected by rat ROMK cDNA (NCBI SEQ ID NO. NM-017023.1) stably expressing the ROMK channel
The above procedures were repeated, except for replacing human ROMK/HEK293 cells with rat ROMK/HEK 293 cells, to determine the inhibition IC50 of the present compounds on rat ROMK channel.
(§2) The inhibitory activity of the present compounds on human ROMK or rat ROMK channel was tested by the assay described above.

ROMK potassium channel = ROMK potassium channel (Homo sapiens (Human), UniProt P48048); experiment: Electrophysiological manual patch clamp on ROMK potassium channel (human ROMK/HEK293 cells); format: cell-based
Source text: The experiment was designed to test the effect of compounds on ROMK potassium channel in HEK 293 in vitro. ROMK potassium channel is stably expressed on the HEK293 cells of the present application. After the potassium ion current was stabilized, the effect of the present compound on the potassium channel was obtained by comparing the potassium current obtained before and after the use of the present compound at different concentrations.
(2) Human ROMK/HEK293 cell: HEK293 cell line stably expressing the ROMK channel transfected by human ROMK cDNA (NCBI SEQ ID NO. NM-000220.4);
(3) Extracellular fluid (mM): NaCl, 137; KCl, 4; CaCl2, 1.8; MgCl2, 1; HEPES, 10; glucose, 10; pH 7.4 (NaOH titration); and
(4) Intracellular fluid (mM): K Aspartate, 130; MgCl2, 5; EGTA 5; HEPES, 10; Tris-ATP, 4; pH 7.2 (KOH titration).
Test compounds were dissolved in dimethyl sulfoxide (DMSO) and then stocked at room temperature. […]
A manual patch clamp system was used for whole-cell current record in this experiment. […] After the ROMK potassium current recorded in the above steps was stabilized under continuous perfusion with extracellular liquid in the recording bath, the drug to be tested was perfused until the inhibition of the drug on the ROMK current reached a steady state. […]
The data were analyzed by HEKA Patchmaster, XLFit and Graphpad Prism data analysis software.

human ROMK channel = human ROMK channel (Homo sapiens (Human), UniProt P48048); experiment: FluxOR potassium ion channel assay, human ROMK/HEK293 cells; format: cell-based
Protocol: as §1
(1) FluxOR™ potassium ion channel assay (F10016, Invitrogen)
(3) FlexStation3 microplate reader (Molecular Devices)
(4) Human ROMK/HEK293 cell: HEK293 cell line stably expressing the ROMK channel transfected by human ROMK cDNA (NCBI SEQ ID NO. NM-000220.4)
as §2

[2] = Pharmacokinetics assay in SD rats, intragastric administration; format: in vivo; conditions: both sexes, Sprague-Dawley, rat, plasma, oral 5 mg/kg
Protocol: Rats were used as test animals. The drug concentration in plasma at different time points was determined by LC/MS/MS after administration of the compounds to rats. The pharmacokinetic behavior of the present compounds was studied and evaluated in rats.
Four (4) healthy adult Sprague-Dawley (SD) rats, half male and half female, were purchased from SINO-BRITSH SIPPR/BK LAB. ANIMAL LTD., CO, with Certificate No.: SCXK (Shanghai) 2008-0016.
The appropriate amount of the test compounds was weighed, and added with 0.5% CMC-Na to a final volume to prepare a 0.5 mg/mL suspension by ultrasonication.
Following fasting overnight, 4 SD rats, half male and half female were administered intragastrically a dose of 5.0 mg/kg and an administration volume of 10 mL/kg.
Blood (0.1 mL) was sampled from orbital sinus before administration and 0.5 h, 1.0 h, 2.0 h, 4.0 h, 6.0 h, 8.0 h, 11.0 h, and 24.0 h after administration. The samples were stored in EDTA anticoagulation tubes, and centrifuged for 10 minutes at 3,500 rpm to separate the blood plasma. The plasma samples were stored at −20° C. The rats were fed 2 hours after administration.
The plasma concentration of the test compounds in rats after intragastric administration was determined by LC-MS/MS. Plasma samples were analyzed after pretreatment by protein precipitation.

human ROMK channel, sequence (P48048 whole entry): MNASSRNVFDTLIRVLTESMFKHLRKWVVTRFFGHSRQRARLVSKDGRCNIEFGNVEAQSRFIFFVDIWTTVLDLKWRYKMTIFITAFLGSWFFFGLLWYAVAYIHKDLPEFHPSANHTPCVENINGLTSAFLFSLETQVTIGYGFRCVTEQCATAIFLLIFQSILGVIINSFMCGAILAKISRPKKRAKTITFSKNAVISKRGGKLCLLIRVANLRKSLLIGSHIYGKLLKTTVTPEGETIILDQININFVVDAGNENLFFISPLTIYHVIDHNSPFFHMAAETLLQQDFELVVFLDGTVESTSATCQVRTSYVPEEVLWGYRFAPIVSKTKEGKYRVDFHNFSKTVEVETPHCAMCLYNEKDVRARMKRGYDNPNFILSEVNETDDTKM
rat ROMK channel, sequence (P35560 whole entry): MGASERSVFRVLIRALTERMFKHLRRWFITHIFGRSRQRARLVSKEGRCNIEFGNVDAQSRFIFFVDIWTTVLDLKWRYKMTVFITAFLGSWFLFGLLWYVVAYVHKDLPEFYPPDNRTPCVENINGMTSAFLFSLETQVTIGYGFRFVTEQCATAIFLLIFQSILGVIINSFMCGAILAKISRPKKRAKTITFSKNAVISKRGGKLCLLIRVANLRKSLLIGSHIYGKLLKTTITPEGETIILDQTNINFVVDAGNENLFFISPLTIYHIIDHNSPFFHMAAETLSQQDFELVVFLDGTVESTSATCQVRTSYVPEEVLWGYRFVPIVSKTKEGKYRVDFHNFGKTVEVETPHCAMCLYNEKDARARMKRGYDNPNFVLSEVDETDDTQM
ROMK potassium channel, sequence (P48048 whole entry): as the sequence (P48048 whole entry) above

| solubility (in words) [1] | serum potassium change (SD rats) | serum sodium change (SD rats) | IC50 (rat ROMK channel) [nM] | IC50 (ROMK potassium channel) [nM] | IC50 (human ROMK channel) [nM] | Vd/F ([2]; read-out: Apparent Distribution Volume Vz/F) [L/kg] | AUC ([2]; read-out: Area Under Curve AUC) [ng·h/mL] | CL/F ([2]; read-out: Clearance CLz/F) [mL/min/kg] | MRT ([2]; read-out: Mean Residence Time MRT) [h] | Cmax ([2]; read-out: Plasma Conc. Cmax) [ng/mL] | Structure (SMILES) | urinary sodium excretion increase compared with blank control group (SD rats; 0.03 mg/kg i.g. once) [times] | urine output increase compared with blank control group (SD rats; 0.03 mg/kg i.g. once) [times] | urinary sodium excretion increase compared with blank control group (SD rats; 0.1 mg/kg i.g. once) [times] | urine output increase compared with blank control group (SD rats; 0.1 mg/kg i.g. once) [times] | urinary potassium compared with normal control group (SD rats) |
| --- | --- | --- | --- | --- | --- | --- | --- | --- | --- | --- | --- | --- | --- | --- | --- | --- |
| poor solubility | changed a little | changed a little |  |  |  |  |  |  |  |  | Cc1cc(C(=O)NC2CCN(C[C@H](O)c3ccc4c(c3C)COC4=O)CC2)ncc1C#N [positive control drug, reference compound] | 1.57 | 1.41 | 1.65 | 1.46 | slightly elevated, but not statistically significant |
| very good | changed a little | changed a little | 192 | 18.7 | 40 | 3.02 ± 0.841 | 9280 ± 3050 | 9.82 ± 3.5 | 5.51 ± 0.75 | 1330 ± 388 | COc1cc(C(=O)NC2CCN(C[C@H](O)c3ccc4c(c3C)COC4=O)CC2)ncc1C#N [Example 1, (R)-5-cyano-N-(1-(2-hydroxy-2-(4-methyl-1-oxo-1,3-dihydroisobenzofuran-5-yl)ethyl)piperidin-4-yl)-4-methoxypicolinamide] | 3.12 | 2.76 | 3.31 | 3.22 | slightly elevated, but not statistically significant |
|  |  |  | 89 |  | 28 |  |  |  |  |  | CCOc1cc(C(=O)NC2CCN(C[C@H](O)c3ccc4c(c3C)COC4=O)CC2)ncc1C#N [Example 2, (R)-5-cyano-4-ethoxy-N-(1-(2-hydroxy-2-(4-methyl-1-oxo-1,3-dihydroisobenzofuran-5-yl)ethyl)piperidin-4-yl)picolinamide] |  |  |  |  |  |
